Earlier results as cited in patent publication US20230149383A1, “QUINOLINE COMPOUNDS FOR TREATING LUNG, LIVER, AND KIDNEY DISEASES, DISORDERS, OR CONDITIONS” (Aldeyra Therapeutics, Inc., priority 2020, published 2023).

Legend:
[1] = test system: ocular inflammation; conditions: Phase 2 and Phase 3 clinical trials; cited from earlier work
[2] = test system: minimal change disease; conditions: Hogan et al. 2013; cited from earlier work
[3] = test system: precision-cut liver slices (PCLS); conditions: addition of 4-methylpyrazole; cited from earlier work

## CC(C)(O)c1nc2ccc(Cl)cc2cc1N [reproxalap]
[1]
  benefit in ocular inflammation, including dry eye disease and allergic conjunctivitis: beneficial

## C[C@]12C=CC(=O)C=C1CC[C@@H]1[C@@H]2[C@@H](O)C[C@@]2(C)[C@H]1CC[C@]2(O)C(=O)CO [prednisolone]
[2]
  complete remission, share of adults with minimal change disease: over 80%

## Cc1cn[nH]c1 [4-methylpyrazole]
[3]
  ethanol-induced impairments (fatty liver, redox state, albumin secretion): reversed
